Experimental findings from paper PMC9425443 (RSC Advances, 2022) are described below.

Counter-ions that a name gives are not always drawn.

One series addresses recombinant CYP142A1 (Mycobacterium tuberculosis, UniProt P9WPL5). The settings on record: pH 7.4.
In series [1] the test system is CC(C)CCC[C@@H](C)[C@H]1CC[C@H]2[C@@H]3CCC4=CC(=O)CC[C@]4(C)[C@H]3CC[C@]12C. The series can be described thus: purified protein, by the assay type. The settings on record: pH 7.5.

recombinant CYP142A1, sequence (P9WPL5 whole entry): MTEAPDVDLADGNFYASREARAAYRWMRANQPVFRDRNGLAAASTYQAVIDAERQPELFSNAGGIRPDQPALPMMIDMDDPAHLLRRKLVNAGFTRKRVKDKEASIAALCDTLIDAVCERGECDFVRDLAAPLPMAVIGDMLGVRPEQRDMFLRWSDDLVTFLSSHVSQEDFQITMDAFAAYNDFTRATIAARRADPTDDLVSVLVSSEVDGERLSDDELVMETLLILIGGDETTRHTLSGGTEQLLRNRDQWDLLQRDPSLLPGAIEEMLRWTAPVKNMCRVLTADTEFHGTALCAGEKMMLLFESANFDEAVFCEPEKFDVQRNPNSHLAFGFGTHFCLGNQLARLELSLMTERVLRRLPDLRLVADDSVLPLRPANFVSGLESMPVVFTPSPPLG

The term Kd denotes the concentration at which binding is half-saturated. On to `CC(C)CCC[C@@H](C)[C@H]1CC[C@H]2[C@@H]3CC=C4C[C@@H](OS(=O)(=O)O)CC[C@]4(C)[C@H]3CC[C@]12C` [Cholesteryl sulfate], for which the Kd at recombinant CYP142A1 was found to be 27 ± 6.9 µM.
In general, Km refers to the substrate concentration at which the rate is half of its maximum. Broadly, the kcat is the maximal rate divided by the concentration of active sites. As for (Mycobacterium tuberculosis H37Rv), in series [1], the Michaelis constant (Km) is 35 ± 5.4 µM and the kcat was found to be 0.128 ± 0.00717 s⁻¹.
For Cholesteryl propionate, the Kd at recombinant CYP142A1 was 45 ± 7 µM.
